We go through six compounds from PMC7925357 (European journal of medicinal chemistry, 2020).

Where two headings read alike, the source gives them in different places. A value given as a limit tells only on which side of the number the result lay.

As a reminder, the Ki is the equilibrium dissociation constant of an inhibitor or competing ligand from its target. One may read the EC50 as the midpoint of the concentration-response curve.

For series [1], the target named is T1, hM3Dq (Homo sapiens, UniProt P20309, A239G/Y149C). The series can be described thus: PET imaging with [18F]7b in transgenic mice expressing hM3Dq. The format is in vivo, mouse.
In series [2] the test system is wild-type mouse brain. Description: PET imaging with [18F]7b in wild-type mouse. The note with it: wild-type mouse lacking DREADD expression.
Series [3] deals with T1, hM3Dq. Conditions: hM3Dq Tg mice; cited from earlier work.
For series [4], the target named is T1, hM3Dq. Conditions: read-out: Ki, nM hM3Dq; printed without SD; cited from earlier work.
For series [5], the target named is T2, hM4Di (Homo sapiens, UniProt P08173, A203G/Y113C).
T2 sequence (P08173 1-479 Y113C/A203G): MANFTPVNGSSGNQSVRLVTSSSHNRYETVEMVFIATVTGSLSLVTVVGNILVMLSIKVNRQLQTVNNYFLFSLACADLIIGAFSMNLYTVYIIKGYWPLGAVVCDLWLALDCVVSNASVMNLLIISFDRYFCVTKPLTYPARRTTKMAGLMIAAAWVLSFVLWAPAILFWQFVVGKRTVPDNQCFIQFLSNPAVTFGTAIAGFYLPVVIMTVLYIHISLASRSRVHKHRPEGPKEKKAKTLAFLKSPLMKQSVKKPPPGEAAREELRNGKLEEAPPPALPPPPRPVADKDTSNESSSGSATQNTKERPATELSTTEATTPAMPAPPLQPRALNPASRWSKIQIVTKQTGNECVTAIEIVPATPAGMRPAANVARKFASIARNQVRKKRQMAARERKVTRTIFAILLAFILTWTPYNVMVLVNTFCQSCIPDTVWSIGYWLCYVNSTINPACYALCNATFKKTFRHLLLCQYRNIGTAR
The note with it: read-out: Ki, nM hM4Di; printed without SD; cited from earlier work.

In series [6] the target is T1, hM3Dq. Conditions: read-out: hM3Dq EC50; DREADD agonist; cited from earlier work.
The test system of series [7] is hM3. The note with it: read-out: hM3 EC50; selectivity versus native hM3; cited from earlier work.
In series [8] the target is T1, hM3Dq. The series can be described thus: [3H]CLZ competition binding, membranes of HEK293 cells transfected with hM3Dq.
Series [9] has as its target T2, hM4Di. Description: [3H]CLZ competition binding, membranes of HEK293 cells transfected with hM4Di.
[10] abbreviates: at 50–60 min after injection, transgenic hM3Dq mice.
[11] abbreviates: baseline, cerebellum as reference tissue.

T1 sequence (P20309 whole entry Y149C/A239G): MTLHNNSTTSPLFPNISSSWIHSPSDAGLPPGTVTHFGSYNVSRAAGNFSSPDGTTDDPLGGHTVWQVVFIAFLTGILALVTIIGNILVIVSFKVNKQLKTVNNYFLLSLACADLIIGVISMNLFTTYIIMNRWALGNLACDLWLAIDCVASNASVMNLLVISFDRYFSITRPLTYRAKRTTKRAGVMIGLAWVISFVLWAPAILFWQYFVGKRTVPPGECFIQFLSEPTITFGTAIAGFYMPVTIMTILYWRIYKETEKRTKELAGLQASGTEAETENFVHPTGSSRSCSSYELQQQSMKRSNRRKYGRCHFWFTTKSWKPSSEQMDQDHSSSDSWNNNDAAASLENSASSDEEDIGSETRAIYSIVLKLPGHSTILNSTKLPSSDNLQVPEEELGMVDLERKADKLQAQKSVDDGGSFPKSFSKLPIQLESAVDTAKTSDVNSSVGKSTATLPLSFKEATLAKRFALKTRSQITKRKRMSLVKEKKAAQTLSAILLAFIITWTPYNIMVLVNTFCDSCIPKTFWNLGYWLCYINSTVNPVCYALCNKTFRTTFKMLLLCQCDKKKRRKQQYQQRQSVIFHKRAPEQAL

Take `CCN1CCN(C2=Nc3ccccc3Nc3ccc([18F])cc32)CC1` [[^18F]7b, 11-(4-Ethylpiperazin-1-yl)-2-[^18F]fluoro-5H-dibenzo[b,e][1,4]diazepine]: in series [1] (setting [10]), the “maximum ratio of tissue to cerebellum, cortex” value is recorded as 1.8 and the “maximum ratio of tissue to cerebellum, striatum” value is given as 3.0. Also, in [1] (setting [11]), the “binding potential BPND, cortex” value was 0.6 and the “binding potential BPND, striatum” value stood at 1.6. The “highest accumulation of radioactivity in the striatum (SUV)” value in series [1] (baseline, striatum, mean ± SD of 3, transgenic hM3Dq mice) is 1.93 ± 0.33 SUV. Also, the “accumulation of radioactivity in the brain” value in [2] is on record as “low accumulation of radioactivity in the brain”.
On to `[11CH3]N1CCN(C2=Nc3ccccc3Nc3ccccc32)CC1` [[^11C]DCZ, [^11C]deschloroclozapine], for which the STR/CB ratio value in series [3] is recorded as 2.7.
With `CN1CCN(C2=Nc3ccccc3Nc3ccccc32)CC1` [DCZ, deschloroclozapine], the Ki in series [4] was 6.3 nM; in [5], 4.2 nM.
As for `CCN1CCN(C2=Nc3cc(Cl)ccc3Nc3c(F)cccc32)CC1` [Compound 7d, 8-Chloro-11-(4-ethylpiperazin-1-yl)-4-fluoro-5H-dibenzo[b,e][1,4]diazepine], the “blocking effect on [18F]7b in the cerebellum” value in [1] (7d as blocker, dose escalation) is given as “insignificant”. In addition, the “blocking of [18F]7b binding potential in the cortex versus baseline” value in series [1] (7d as blocker, dose escalation up to 0.5 mg/kg) is “significant only at the highest dose of blocker”.
As for `CCN1CCN(C2=Nc3cc(Cl)ccc3Nc3ccccc32)CC1` [Compound 1, 8-chloro-11-(4-ethylpiperazin-1-yl)-5H-dibenzo[b,e][1,4]diazepine], the values for the EC50 in series [6] and in [7] were 1.3 nM and greater than 30000 nM, respectively.
Consider `CCN1CCN(C2=Nc3cc(Cl)ccc3Nc3c(F)cc(F)cc32)CC1` [Compound 7h, 8-Chloro-11-(4-ethylpiperazin-1-yl)-2,4-difluoro-5H-dibenzo[b,e][1,4]diazepine], for which the Ki in [8] worked out at 8.1 ± 0.9 nM; in [9], 18.1 ± 5.4 nM.
